In US20140213538A1, “LYSOPHOSPHATIDIC ACID RECEPTOR ANTAGONISTS” (InterMune, Inc., priority 2013, published 2014):

Columns and labels:
Assay type in all cases: cell-based
LPA/S1P GPCR of interest = target: T1, LPA/S1P GPCR of interest (Homo sapiens, UniProt Q92633); assay: Beta-Arrestin based assay (PathHunter)
T1 construct: host or cells: CHO
Method in brief: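 EA Parental CHO cells (DiscoverX) were transfected with FuGENE (Roche) using CMV promoter-driven DNA constructs encoding the LPA/S1P GPCR of interest fused to a ProLink tag. Beta-arrestin recruitment in agonist mode was assessed 24-48 hrs later with PathHunter kits. Tests ran in quadruplicate in white 384 well plates, and end point luminescence was fit to a 4 parameter logistic function.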

LPA1 [1] = target: T2, LPA1 (Homo sapiens, UniProt Q92633); assay: LPA1 Migration Assay (Oris); set-up: host or cells: primary fibroblasts (lung, dermal), HFL-1, 3T3 and CHO cells expressing LPA1R; conditions: read-out: Cell Migration EC50
Method in brief: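 Oris exclusion-zone migration of LPA1R-expressing cells (primary lung/dermal fibroblasts, HFL-1, 3T3, CHO), Cell Tracker Green-loaded and serum-starved 12-24 h, toward LPA or serum. Fixed cells in the detection zone were counted by high-content imaging, and cell number vs. concentration was fitted to a 4-parameter logistic.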

LPA1 [2] = target: T2, LPA1; assay: Ca Flux LPA1 assay; set-up: the full-length cDNA for human LPA1 is obtained by PCR of the reverse transcription reaction; expressed in transfected cells

T2 sequence (Q92633 whole entry): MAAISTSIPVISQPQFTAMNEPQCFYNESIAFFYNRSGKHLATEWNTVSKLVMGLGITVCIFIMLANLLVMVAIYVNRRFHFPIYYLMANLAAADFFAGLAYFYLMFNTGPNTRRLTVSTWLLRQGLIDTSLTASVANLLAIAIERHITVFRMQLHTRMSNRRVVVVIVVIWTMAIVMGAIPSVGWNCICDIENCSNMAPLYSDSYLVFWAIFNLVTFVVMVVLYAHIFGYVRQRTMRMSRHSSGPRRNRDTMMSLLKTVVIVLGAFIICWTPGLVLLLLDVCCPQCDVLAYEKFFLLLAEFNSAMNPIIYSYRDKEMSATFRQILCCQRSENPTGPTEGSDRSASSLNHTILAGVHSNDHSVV
T1 sequence (Q92633 whole entry): as above

SMILES	EC50 (LPA/S1P GPCR of interest)	EC50 (LPA1 [1])	IC50 (LPA1 [2])
Cc1noc(-c2ccc(-c3cc(F)c(Oc4nccnc4C(=O)O)c(F)c3)cc2)c1NC(=O)O[C@H](C)c1ccccc1 [IT305]	< 50 nM	< 50 nM	< 50 nM
C[C@@H](OC(=O)Nc1c(-c2cc(Cl)c(-c3cc4sc(C5(C(=O)O)CC5)cc4s3)cc2F)cnn1C)c1ccccc1 [IT282]	< 50 nM	< 50 nM	50 to 500 nM
C[C@@H](OC(=O)Nc1c(-c2ccc(-c3cc(F)c(Oc4ccncc4C(=O)O)c(F)c3)cc2)nnn1C)c1ccccc1 [IT453]	< 50 nM	< 50 nM	50 to 500 nM
Cc1onc(-c2cc(F)c(-c3cc4sc(C5(C(=O)O)CC5)cc4s3)cc2F)c1NC(=O)O[C@H](C)c1ccccc1 [IT255]	< 50 nM	50 to 500 nM	50 to 500 nM
Cc1noc(-c2ccc(-c3ccc(OC(F)(F)C(=O)O)cc3)cc2)c1NC(=O)O[C@H](C)c1ccccc1 [IT228]	< 50 nM	50 to 500 nM	50 to 500 nM
C[C@@H](OC(=O)Nc1c(-c2ccc(-c3ccc(C4(C(=O)O)CCOCC4)cc3)cc2)cnn1C)c1ccccc1 [IT027]	50 to 500 nM	> 500 nM	50 to 500 nM
C[C@@H](OC(=O)Nc1c(C#Cc2cc(F)c(Oc3ncccc3C(=O)O)c(F)c2)cnn1C)c1ccccc1 [IT303]	50 to 500 nM	50 to 500 nM	< 50 nM
CCc1nc(C(=O)O)c(Oc2ccc(-c3ccc(-c4onc(C)c4NC(=O)O[C@H](C)c4ccccc4)cc3)cc2)o1 [IT434]	< 50 nM	–	50 to 500 nM
Cc1nnn(-c2cc(F)c(-c3ccc(C4(C(=O)O)CCOCC4)cc3)cc2F)c1NC(=O)O[C@H](C)c1ccccc1 [IT030]	> 500 nM	> 500 nM	> 500 nM
Cc1nnn(-c2ccc(-c3cc(F)c(Oc4ncccc4C(=O)O)c(F)c3)cc2)c1NC(=O)O[C@H](C)c1ccccc1 [IT307]	< 50 nM	50 to 500 nM	< 50 nM
Cc1noc(-c2ccc(-c3ccc(Oc4c(C)nn(C)c4C(=O)O)cc3)cc2)c1NC(=O)O[C@H](C)c1ccccc1 [IT483]	< 50 nM	50 to 500 nM	50 to 500 nM
Cc1noc(-c2ccc(-c3ccc(Oc4cccnc4C(=O)O)cc3)cc2)c1NC(=O)O[C@H](C)c1ccccc1 [IT229]	< 50 nM	50 to 500 nM	50 to 500 nM
Cc1nnn(-c2ccc(-c3cc(F)c(Oc4ccccc4C(=O)O)c(F)c3)cc2)c1NC(=O)O[C@H](C)c1ccccc1 [IT408]	< 50 nM	< 50 nM	< 50 nM
C[C@@H](OC(=O)Nc1c(-c2cc3sc(-c4ccc(C5(C(=O)O)CC5)cc4)cc3s2)cnn1C)c1ccccc1 [IT119]	< 50 nM	50 to 500 nM	> 500 nM
Cc1noc(-c2ccc(-c3ccc(Oc4c(C(=O)O)nn(C)c4C)cc3)cc2)c1NC(=O)O[C@H](C)c1ccccc1 [IT484]	< 50 nM	50 to 500 nM	< 50 nM
Cc1noc(-c2ccc(-c3ccc(C4(C(=O)O)CC(F)(F)C4)cc3)cc2)c1NC(=O)O[C@H](C)c1ccccc1 [IT136]	< 50 nM	50 to 500 nM	50 to 500 nM
C[C@@H](OC(=O)Nc1c(C#Cc2ccc(Oc3ccccc3C(=O)O)cc2)cnn1C)c1ccccc1 [IT301]	< 50 nM	50 to 500 nM	< 50 nM
Cc1cc(C2(C(=O)O)CC2)c(F)cc1-c1cc2sc(-c3nnn(C)c3NC(=O)O[C@H](C)c3ccccc3)cc2s1 [IT341]	< 50 nM	50 to 500 nM	50 to 500 nM
Cc1noc(-c2ccc(-c3ccc(C(F)(F)C(=O)O)cc3)cc2)c1NC(=O)O[C@H](C)c1ccccc1 [IT123]	< 50 nM	50 to 500 nM	50 to 500 nM
Cc1noc(-c2ccc(-c3ccc(Oc4ccccc4C(=O)O)nc3)cc2)c1NC(=O)O[C@H](C)c1ccccc1 [IT345]	< 50 nM	50 to 500 nM	< 50 nM

SMILES	EC50 (LPA/S1P GPCR of interest)	EC50 (LPA1 [1])	IC50 (LPA1 [2])
C[C@@H](OC(=O)Nc1c(C#Cc2sc3cc(C4(C(=O)O)CC4)sc3c2C(F)(F)F)cnn1C)c1ccccc1 [IT103]	–	50 to 500 nM	< 50 nM
C[C@@H](OC(=O)Nc1c(C#Cc2cc3sc(C4(C(=O)NS(C)(=O)=O)CC4)cc3s2)cnn1C)c1ccccc1 [IT098]	–	–	< 50 nM
C[C@@H](OC(=O)Nc1c(C#Cc2nc3sc(C4(C(=O)O)CC4)cc3s2)cnn1C)c1ccccc1 [IT095]	–	–	< 50 nM
Cc1nsc(-c2ccc(-c3ccc(C4(C(=O)O)CC4)cc3)cc2)c1NC(=O)OC(c1ccccc1)C(F)(F)F (single isomer, unassigned) [IT078]	–	50 to 500 nM	50 to 500 nM
Cc1nsc(-c2ccc(C3CCC(C4(C(=O)O)CC4)CC3)cc2)c1NC(=O)O[C@H](C)c1ccccc1 (stereo partly shown) [IT091]	–	> 500 nM	50 to 500 nM
C[C@@H](OC(=O)Nc1c(C(F)(F)F)nnn1-c1ccc(-c2ccc(C3(C(=O)O)CC3)cc2)cc1)c1ccccc1 [IT072]	–	> 500 nM	50 to 500 nM
Cc1noc(-c2ccc(-c3ccc(Oc4ncsc4C(=O)O)cc3)cc2)c1NC(=O)O[C@H](C)c1ccccc1 [IT417]	50 to 500 nM	50 to 500 nM	–
CC(=O)NS(=O)(=O)c1ccc(-c2ccc(-c3onc(C)c3NC(=O)O[C@H](C)c3ccccc3)cc2)cc1 [IT131]	50 to 500 nM	> 500 nM	–
Cc1noc(-c2ccc(-c3ccc(S(C)(=O)=O)nc3)cc2)c1NC(=O)O[C@H](C)c1ccccc1 [IT139]	50 to 500 nM	50 to 500 nM	–
Cc1noc(-c2ccc(-c3ccc(Oc4ccccc4C(=O)O)c(F)c3)cc2)c1NC(=O)O[C@H](C)c1ccccc1 [IT355]	< 50 nM	< 50 nM	–
C[C@@H](OC(=O)Nc1c(-c2cc(F)c(-c3ccc(C4(C(=O)O)CC4)cc3)cc2F)oc2ncccc12)c1ccccc1 [IT096]	< 50 nM	50 to 500 nM	–
C[C@@H](OC(=O)Nc1c(-c2cc3sc(-c4cc(F)c(CC(=O)O)c(F)c4)cc3s2)nnn1C)c1ccccc1 [IT158]	50 to 500 nM	50 to 500 nM	–
Cc1noc(C#Cc2nc3sc(C4(C(=O)O)CC4)cc3s2)c1NC(=O)O[C@H](C)c1ccccc1 [IT102]	–	50 to 500 nM	< 50 nM
Cc1nsc(-c2cc(F)c(-c3nc4sc(C5(C(=O)O)CC5)cc4s3)cc2F)c1NC(=O)O[C@H](C)c1ccccc1 [IT201]	< 50 nM	50 to 500 nM	–
C[C@@H](OC(=O)Nc1c(-c2ccc(-c3ccc(C(C(=O)O)C4CCC4)cc3)cc2)cnn1C)c1ccccc1 (stereo partly shown) [IT151]	< 50 nM	50 to 500 nM	–
Cc1nsc(-c2cc3sc(-c4ccc(CC(=O)O)c(Cl)c4)cc3s2)c1NC(=O)O[C@H](C)c1ccccc1 [IT167]	> 500 nM	> 500 nM	–
CCC(C)OC(=O)Nc1c(C)noc1-c1ccc(-c2ccc(Oc3ccccc3C(=O)O)cc2)cc1 (single isomer, unassigned) [IT493]	50 to 500 nM	> 500 nM	–
Cc1noc(-c2ccc(-c3ccc(Oc4ncncc4C(=O)O)cc3)cc2)c1NC(=O)O[C@H](C)c1ccccc1 [IT230]	< 50 nM	50 to 500 nM	–
Cc1noc(-c2ccc(-c3ccc4c(c3)CCCC4C(=O)O)cc2)c1NC(=O)O[C@H](C)c1ccccc1 (mixture of isomers) [IT038]	50 to 500 nM	> 500 nM	–
C[C@@H](OC(=O)Nc1c(-c2ccc(C#CC(=O)N[C@@H](C(=O)O)c3ccccc3)cc2)cnn1C)c1ccccc1 [IT401]	> 500 nM	50 to 500 nM	–
